Results from patent EP1298214A2, “Plant thioesterases” (Calgene LLC, priority 1990, dated 1991).

Key:
[1] = system: material which fails to bind the ACP column (Lauroyl-CoA hydrolysis activity); experiment: Substrate hydrolysis (ACP versus CoA) by peak unbound fraction of the ACP column; assay type: biochemical, Umbellularia californica; conditions: Flow-through (nonbinding) fraction; cpm of ether-extractable product
Description: (§1) To assay for C12 thioesterase activity the following mixture is incubated at 30° for 30 min: "buffer" comprising 7mM KH2PO4-KOH pH 8, 20% v/v glycerol, 1mM dithiothreitol (DTT), 0.1% v/v Triton X100; sample to be tested for activity in the same or similar buffer as the "extraction buffer" described in Example 2; and 5µl of ^14C-radiolabeled lauroyl-ACP substrate for a total volume of 100µl and final lauroyl-ACP concentration of 0.5µM. Lauroyl-ACP substrate is prepared according to the method of Rock et al (Methods in Enzymology (1981) 72:397-403), using ACP prepared from Escherichia coli by the method of Rock and Cronan (Methods in Enzymology (1981) 71:341-351). The laurate is radiolabeled in the carboxylate group at a specific radioactivity of 50-60µCi/µmol.
(§2) The reaction is stopped by adding 0.5ml cold (0°) 10% v/v acetic acid. […] After settling for a few minutes the upper ether layer is transferred to 5ml scintillation fluid for determination of radioactivity by liquid scintillation spectrometry. Additional ether extractions may be performed to recover remaining traces of the reaction product for more accurate quantitation of the enzyme activity if desired. The amount of ether-extracted radioactivity is a direct measure of C12-preferring acyl-ACP thioesterase activity, provided the amount of enzyme is not sufficient to hydrolyze more than about 25% of the substrate. […]

[2] = target: T1, Bay C12-preferring acyl-ACP thioesterase (Umbellularia californica, UniProt Q41635); experiment: Substrate hydrolysis (ACP versus CoA) by peak gradient-eluted fraction of the ACP column; assay type: biochemical; parameters: The cotyledons from such seeds are dissected from the other seed parts and stored frozen at -70°; This comprises the source tissue for enzyme extraction; from tissue; host or cells: immature seed cotyledons of Umbellularia californica; conditions: cpm of ether-extractable product
T1 sequence (Q41635 84-382): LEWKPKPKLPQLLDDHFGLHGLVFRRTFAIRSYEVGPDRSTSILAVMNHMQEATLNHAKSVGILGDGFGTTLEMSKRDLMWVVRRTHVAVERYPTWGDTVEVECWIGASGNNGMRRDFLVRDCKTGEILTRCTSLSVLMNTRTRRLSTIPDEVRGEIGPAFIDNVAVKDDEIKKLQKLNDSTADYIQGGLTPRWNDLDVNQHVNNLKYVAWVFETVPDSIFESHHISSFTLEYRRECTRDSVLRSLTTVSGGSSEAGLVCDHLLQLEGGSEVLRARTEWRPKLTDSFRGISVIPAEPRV
Description: as §1, §2

## lauroyl-ACP [12:0-ACP]
[1]
  Activity on Substrate: 300 cpm
[2]
  Activity on Substrate: 2772 cpm
